# Reference: patent US20180200257A1, “METHODS FOR THE TREATMENT OF INFLAMMATORY DISORDERS” (Galapagos NV, priority 2015, published 2018)
# Tested on: subjects with moderately to severely active RA who have an inadequate response to methotrexate (MTX)
# Assay: Study 1 (add-on to MTX) - ACR responses (ACR20/50/70)
# Assay type: in vivo, human
# Description: The terms “ACR20”, “ACR50” and “ACR70” as used herein are scores which indicate how much a patient's rheumatoid arthritis has improved according to criteria set out by the American College of Rheumatology (ACR). The ACR score represents a percentage. An ACR20 score means that a person's RA has improved by 20%, an ACR50 score means it has improved by 50%, and an ACR70 score means it has improved by 70%. Specifically, to qualify for an ACR20 score, a person with RA must have at least 20% fewer tender joints and at least 20% fewer swollen joints. In addition the patient must show a 20% improvement in at least three of the following five areas: the person's overall (global) assessment of his or her own RA, the physician's global assessment of the person's RA, the person's assessment of his or her own pain, the person's assessment of his or her own physical functioning, and the results of an erythrocyte sedimentation rate or C-reactive protein (CRP) blood test (both of which test for inflammation). ACR50 and ACR70 scores use the same criteria but require 50% and 70% improvement, respectively, (Felson et al., 1993). In the data presented herein the CRP blood test is used.
# Double-blind, placebo-controlled add on study in subjects with moderately to severely active RA who have an inadequate response to methotrexate (MTX) (oral or parenteral).
# 595 subjects randomized to one of 6 dose regimens of Compound 1 (dosed as [Compound 1:HCl:3H2O]) (3 dose levels administered either once or twice daily) or placebo on top of each subject's stable dose of MTX.
# Compound 1 (dosed as [Compound 1:HCl:3H2O]) is dosed for twelve weeks once daily (q.d.) (50 mg, 100 mg or 200 mg) or twice daily (b.i.d.) (25 mg, 50 mg or 100 mg); or placebo.
# At Week 12, the subjects on placebo who have not achieved 20% improvement in swollen joint count (SJC66) and tender joint count (TJC68) are re-randomized automatically to receive Compound 1 (dosed as a [Compound 1:HCl:3H2O]) either at 100 mg q.d. or 50 mg b.i.d. doses in a blinded fashion; subjects on 50 mg q.d. who have not achieved 20% improvement in SJC66 and TJC68 will be assigned to 100 mg q.d. and subjects on 25 mg b.i.d. that have not achieved a 20% improvement in SJC66 and TJC68 will be assigned to 50 mg b.i.d. Subjects who switch treatment at week 12 are handled as if they discontinued at week 12 for the purpose of statistical analysis, whereas subjects in the other groups will maintain their randomized treatment until Week 24.
# The American College of Rheumatology (ACR) composite score, which evaluates clinical improvement relative to an initial assessment, is a commonly accepted efficacy end point for clinical trials in patients with rheumatoid arthritis. The ACR score correspond to a percentage improvement in pre-set parameters, and therefore measures the evolution of the disease in a patient. For example, ACR20 denotes at least 20% improvement in tender and swollen joint counts and in three of the following end points: global assessment by the patient, global assessment by the doctor, C reactive protein (CRP), patient's pain Visual Analogue Scale and Health Assessment Questionnaire Score. The number of swollen joints, ESR and CRP correlate with radiographic progression of joint damage, whereas tender joint counts, as well as global assessments by doctors and patients, and patients' reports of pain, are sensitive to change in clinical outcomes. Physical function, as assessed by the Health Assessment Questionnaire Score, is a potent predictor of the risk of disability in rheumatoid arthritis (Felson and American College of Rheumatology Committee to Reevaluate Improvement Criteria, 2007; Felson et al., 1993).
# In particular, the list of parameters used to assess ACR score can be found in the Table XCVI below and the results of the ACR responses at week 12 via either NRI or LOCF are shown in the tables below. The Hommel-corrected p-value for the pairwise comparisons of each group with placebo is shown. […]
# [1] = 2 × 50 mg b.i.d., week 12, 12 weeks results
# [2] = 2 × 50 mg b.i.d., week 12, 24 weeks results
# [3] = 2 × 50 mg b.i.d., week 16, 24 weeks results
# [4] = 2 × 50 mg b.i.d., week 20, 24 weeks results
# [5] = 2 × 50 mg b.i.d., week 24, 24 weeks results
# [6] = 2 × 50 mg b.i.d., at week 1, 12 weeks results
# [7] = 2 × 50 mg b.i.d., at week 1, 24 weeks results
# [8] = 2 × 100 mg b.i.d., week 2, 12 weeks results
# [9] = 2 × 100 mg b.i.d., week 2, 24 weeks results
# [10] = 2 × 100 mg b.i.d., week 4, 12 weeks results
# [11] = 2 × 100 mg b.i.d., week 4, 24 weeks results
# [12] = 2 × 100 mg b.i.d., week 8, 12 weeks results
# [13] = 2 × 100 mg b.i.d., week 8, 24 weeks results
# [14] = 2 × 100 mg b.i.d., week 12, 12 weeks results
# [15] = 2 × 100 mg b.i.d., week 12, 24 weeks results
# [16] = 2 × 100 mg b.i.d., week 16, 24 weeks results
# [17] = 2 × 100 mg b.i.d., week 20, 24 weeks results
# [18] = 2 × 100 mg b.i.d., week 24, 24 weeks results
# [19] = 2 × 100 mg b.i.d., at week 1, 12 weeks results
# [20] = 2 × 100 mg b.i.d., at week 1, 24 weeks results
compound,measurement,setting,value
"O=C(Nc1nc2cccc(-c3ccc(CN4CCS(=O)(=O)CC4)cc3)n2n1)C1CC1 [Compound 1, cyclopropanecarboxylic acid {5-[4-(1,1-dioxo-thiomorpholin-4-ylmethyl)-phenyl]-[1,2,4]triazolo[1,5-a]pyridin-2-yl}-amide]",ACR70 (NRI),"2 × 50 mg b.i.d., week 8, 24 weeks results",14.1%
same,ACR20 (LOCF),[1],58.8%
same,ACR20 (NRI),[1],58.8%
same,ACR50 (LOCF),[1],34.1%
same,ACR50 (NRI),[1],34.1%
same,ACR70 (LOCF),[1],18.8%
same,ACR70 (NRI),[1],18.8%
same,ACR20 (LOCF),[2],60.0%
same,ACR20 (NRI),[2],58.8%
same,ACR50 (LOCF),[2],34.1%
same,ACR50 (NRI),[2],34.1%
same,ACR70 (LOCF),[2],18.8%
same,ACR70 (NRI),[2],18.8%
same,ACR20 (LOCF),[3],67.1%
same,ACR20 (NRI),[3],64.7%
same,ACR50 (LOCF),[3],32.9%
same,ACR70 (LOCF),[3],21.2%
same,ACR20 (LOCF),[4],68.2%
same,ACR20 (NRI),[4],65.9%
same,ACR50 (LOCF),[4],41.2%
same,ACR70 (LOCF),[4],22.4%
same,ACR20 (LOCF),[5],67.1%
same,ACR20 (NRI),[5],60.0%
same,ACR50 (LOCF),[5],38.8%
same,ACR70 (LOCF),[5],24.7%
same,ACR20 (LOCF),[6],22.4%
same,ACR20 (NRI),[6],22.4%
same,ACR50 (LOCF),[6],7.1%
same,ACR50 (NRI),[6],7.1%
same,ACR70 (LOCF),[6],2.4%
same,ACR70 (NRI),[6],2.4%
same,ACR20 (LOCF),[7],22.4%
same,ACR20 (NRI),[7],22.4%
same,ACR50 (LOCF),[7],7.1%
same,ACR50 (NRI),[7],7.1%
same,ACR70 (LOCF),[7],2.4%
same,ACR70 (NRI),[7],2.4%
same,ACR20 (LOCF),[8],53.6%
same,ACR20 (NRI),[8],54.8%
same,ACR50 (LOCF),[8],22.6%
same,ACR50 (NRI),[8],21.4%
same,ACR70 (LOCF),[8],4.8%
same,ACR70 (NRI),[8],3.6%
same,ACR20 (LOCF),[9],56.0%
same,ACR20 (NRI),[9],54.8%
same,ACR50 (LOCF),[9],22.6%
same,ACR50 (NRI),[9],21.4%
same,ACR70 (LOCF),[9],4.8%
same,ACR70 (NRI),[9],3.6%
same,ACR20 (LOCF),[10],67.9%
same,ACR20 (NRI),[10],69.0%
same,ACR50 (LOCF),[10],34.5%
same,ACR50 (NRI),[10],35.7%
same,ACR70 (LOCF),[10],9.5%
same,ACR70 (NRI),[10],10.7%
same,ACR20 (LOCF),[11],67.9%
same,ACR20 (NRI),[11],67.9%
same,ACR50 (LOCF),[11],34.5%
same,ACR50 (NRI),[11],34.5%
same,ACR70 (LOCF),[11],10.7%
same,ACR70 (NRI),[11],10.7%
same,ACR20 (LOCF),[12],75.0%
same,ACR20 (NRI),[12],75.0%
same,ACR50 (LOCF),[12],45.2%
same,ACR50 (NRI),[12],45.2%
same,ACR70 (LOCF),[12],26.2%
same,ACR70 (NRI),[12],27.4%
same,ACR20 (LOCF),[13],75.0%
same,ACR20 (NRI),[13],75.0%
same,ACR50 (LOCF),[13],45.2%
same,ACR50 (NRI),[13],45.2%
same,ACR70 (LOCF),[13],27.4%
same,ACR70 (NRI),[13],27.4%
same,ACR20 (LOCF),[14],79.8%
same,ACR20 (NRI),[14],79.8%
same,ACR50 (LOCF),[14],56.0%
same,ACR50 (NRI),[14],54.8%
same,ACR70 (LOCF),[14],29.8%
same,ACR70 (NRI),[14],31.0%
same,ACR20 (LOCF),[15],81.0%
same,ACR20 (NRI),[15],79.8)
same,ACR50 (LOCF),[15],57.1%
same,ACR50 (NRI),[15],54.8%
same,ACR70 (LOCF),[15],31.0%
same,ACR70 (NRI),[15],31.0%
same,ACR20 (LOCF),[16],84.5%
same,ACR20 (NRI),[16],82.1%
same,ACR50 (LOCF),[16],64.3%
same,ACR70 (LOCF),[16],36.9%
same,ACR20 (LOCF),[17],88.1%
same,ACR20 (NRI),[17],84.5%
same,ACR50 (LOCF),[17],61.9%
same,ACR70 (LOCF),[17],36.9%
same,ACR20 (LOCF),[18],86.9%
same,ACR20 (NRI),[18],79.8%
same,ACR50 (LOCF),[18],61.9%
same,ACR70 (LOCF),[18],42.9%
same,ACR20 (LOCF),[19],33.3%
same,ACR20 (NRI),[19],34.5%
same,ACR50 (LOCF),[19],7.1%
same,ACR50 (NRI),[19],7.1%
same,ACR70 (LOCF),[19],4.8%
same,ACR70 (NRI),[19],4.8%
same,ACR20 (LOCF),[20],34.5%
same,ACR20 (NRI),[20],34.5%
same,ACR50 (LOCF),[20],7.1%
same,ACR50 (NRI),[20],7.1%
same,ACR70 (LOCF),[20],4.8%
same,ACR70 (NRI),[20],4.8%
